# In patent publication US20100144767A1, “Use of sodium channel blockers for the treatment of visceral pain or pain caused by cancer treatment” (priority 2005, published 2010):
# Several values for one entry are separate records, joined by “and”; a condition that tells them apart may be missing. Equal entries are not always repeated.
# Assays:
# [1] = test system: formalin-induced inflammation; set-up: species or system rats; conditions: rat, in vivo
# [2] = test system: capsaicin-induced nociceptive behaviours; experiment: Visceral pain model: capsaicin solution delivered to the colon, nociceptive behaviours counted for 30 min; set-up: species or system mice; conditions: mouse, in vivo
# [3] = test system: postoperative pain (incised hind paw withdrawal latency); experiment: Postoperative pain, thermal stimulus, four days of pre-treatment; assay type: in vivo, rats
# Method: The studied compounds (dypirone at 40 mg/kg and tetrodotoxin at 0, 3, 4 μg/kg) were administered subcutaneously to groups of 12 male rats twice daily for 4 days. On the morning of Day 5, an incision was made in the hind paw of the rats. One hour later, the compounds were administered again and 30 minutes later, a thermal stimulus was applied in the incised paw and the latency to withdraw the hind paws was recorded.
# [4] = test system: carrageenan-induced inflammatory pain; set-up: species or system SD rats; conditions: rat, in vivo
# [5] = test system: moderate to severe pain associated with cancer; set-up: species or system human; conditions: in vivo
# [6] = test system: pain (visceral pain, pain caused by therapy); conditions: human, in vivo
# [7] = test system: postoperative pain (incised hind paw withdrawal latency); experiment: Postoperative pain, thermal stimulus, acute treatment (hind paw incision); assay type: in vivo, rats; conditions: Rattus norvegicus, iv
smiles,measurement,setting,value
"N=C1NC(O)C2C3OC4(O)OC(C(O)C2(N1)C4O)C3(O)CO (stereo not drawn) [Tetrodotoxin, octahydro-12-(hydroxymethyl)-2-imino-5,9:7,10a-dimethano-10aH-[1,3]dioxocino[6,5-d]pyrimidine-4,7,10,11,12-pentol]",effective dosage,[1],2.5 µg/mg
same,effects on capsaicin-induced nociceptive behaviours versus control,[2]; sc,30% and 58.8%
same,antinociceptive activity,"[3]; rat, in vivo",35% and 39%
same,effect upon the degree of inflammation,[4],does not have any effect
same,"nociceptive threshold, Randall-Selitto test (paw pressure)",[4]; sc,higher nociceptive threshold
same,impression of change,[5],1
same,total response day,[5],66 days
same,analgesic response,[6],no analgesic response
same,decrease in current and average pain intensity,[6],about 2 point
same,most pain relief percentage,[6],89%
same,pain score,[6],7 /10 and 4 /10
same,relief of pain,[6],complete relief of their pain
CN1CC[C@]23c4c5ccc(O)c4O[C@H]2[C@@H](O)C=C[C@H]3[C@H]1C5 [Morphine],ED50,[7],0.59 mg/kg
same,effects on capsaicin-induced nociceptive behaviours versus control,[2],54.8% and 92.5% and 100%
"Cc1c(N(C)CS(=O)(=O)[O-])c(=O)n(-c2ccccc2)n1C.[Na+] [Dypirone, reference compound]",antinociceptive activity,"[3]; 40 mg/kg s.c. b.i.d., four days of pre-treatment",40%
